In patent US20150105252A1, “SUBSTITUTED PYRAZOLES AS HERBICIDES” (E I DU PONT DE NEMOURS AND COMPANY, priority 2013, published 2015):

Legend:
barnyardgrass [1] = assay: Test A preemergence; assay type: in vivo, Echinochloa crus-galli; details: preemergence; for Barnyardgrass plant response rating (0 to 100 scale, 0 is no effect, 100 is complete control): visual injury approx. 10 days after treatment
Method in brief: (§1)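 Ratings express plant response from 0 (no effect) to 100 (complete control), judged visually against untreated controls after approximately 10 days in the greenhouse. Preemergence applications were made as directed soil sprays onto seeded loam–sand mix, and postemergence applications onto 2–10 cm plants at one- to two-leaf stage.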

crabgrass, large [2] = assay: Test A preemergence; assay type: in vivo, Digitaria sanguinalis; details: preemergence; for Crabgrass, Large plant response rating (0 to 100 scale): visual injury approx. 10 days after treatment
Method in brief: as §1

foxtail, giant [3] = assay: Test A preemergence; assay type: in vivo, Setaria faberii; details: preemergence; for Foxtail, Giant plant response rating (0 to 100 scale): visual injury approx. 10 days after treatment
Method in brief: as §1

morningglory [4] = assay: Test A preemergence; assay type: in vivo, Ipomoea spp.; details: preemergence; for Morningglory plant response rating (0 to 100 scale): visual injury approx. 10 days after treatment
Method in brief: as §1

pigweed [5] = assay: Test A preemergence; assay type: in vivo, Amaranthus retroflexus; details: preemergence; for Pigweed plant response rating (0 to 100 scale): visual injury approx. 10 days after treatment
Method in brief: as §1

velvetleaf [6] = assay: Test A preemergence; assay type: in vivo, Abutilon theophrasti; details: preemergence; for Velvetleaf plant response rating (0 to 100 scale): visual injury approx. 10 days after treatment
Method in brief: as §1

wheat [7] = assay: Test A preemergence; assay type: in vivo, Triticum aestivum; details: preemergence; for Wheat plant response rating (0 to 100 scale): visual injury approx. 10 days after treatment
Method in brief: as §1

corn [8] = assay: Test A preemergence; assay type: in vivo, Zea mays; details: preemergence; for Corn plant response rating (0 to 100 scale): visual injury approx. 10 days after treatment
Method in brief: as §1

barnyardgrass [9] = assay: Test A postemergence; assay type: in vivo, Echinochloa crus-galli
Method in brief: as §1

crabgrass, large [10] = assay: Test A postemergence; assay type: in vivo, Digitaria sanguinalis
Method in brief: as §1

foxtail, giant [11] = assay: Test A postemergence; assay type: in vivo, Setaria faberii
Method in brief: as §1

morningglory [12] = assay: Test A postemergence; assay type: in vivo, Ipomoea spp.
Method in brief: as §1

pigweed [13] = assay: Test A postemergence; assay type: in vivo, Amaranthus retroflexus
Method in brief: as §1

velvetleaf [14] = assay: Test A postemergence; assay type: in vivo, Abutilon theophrasti
Method in brief: as §1

wheat [15] = assay: Test A postemergence; assay type: in vivo, Triticum aestivum
Method in brief: as §1

corn [16] = assay: Test A postemergence; assay type: in vivo, Zea mays
Method in brief: as §1

rice = assay: Test B flood; assay type: in vivo, Oryza sativa; details: 250 g ai/ha, visual rating on 0 to 100 scale (0 no effect, 100 complete control), 13 to 15 days
Method: (§2) Seeds selected from rice (Oryza sativa), sedge, umbrella (small-flower umbrella sedge Cyperus difformis), ducksalad (Heteranthera limosa), and barnyardgrass (Echinochloa crus-galli) were grown to the 2-leaf stage for testing. At time of treatment, test pots were flooded to 3 cm above the soil surface, treated by application of test compounds directly to the paddy water, and then maintained at that water depth for the duration of the test.
(§3) Treated plants and controls were maintained in a greenhouse for 13 to 15 days, after which time all species were compared to controls and visually evaluated. Plant response ratings, summarized in Table B, are based on a scale of 0 to 100 where 0 is no effect and 100 is complete control. A dash (-) response means no test result.

sedge, umbrella = assay: Test B flood; assay type: in vivo, Cyperus difformis; details: 250 g ai/ha, visual rating on 0 to 100 scale (0 no effect, 100 complete control), 13 to 15 days
Method: as §2, §3

ducksalad = assay: Test B flood; assay type: in vivo, Heteranthera limosa; details: 250 g ai/ha, visual rating on 0 to 100 scale (0 no effect, 100 complete control), 13 to 15 days
Method: as §2, §3

barnyardgrass [17] = assay: Test B flood; assay type: in vivo, Echinochloa crus-galli; details: 250 g ai/ha, visual rating on 0 to 100 scale (0 no effect, 100 complete control), 13 to 15 days
Method: as §2, §3

[18] = 500 g ai/ha, visual injury after approx. 10 days, 0 to 100 scale (0 no effect, 100 complete control)
[19] = Postemergence, 500 g ai/ha, 0 to 100 scale (0 no effect, 100 complete control)
[20] = postemergence, 125 g ai/ha, about 10 days, visual rating on 0 to 100 scale (0 no effect, 100 complete control)
[21] = Postemergence, 125 g ai/ha, 0 to 100 scale, 0 no effect, 100 complete control
[22] = 125 g ai/ha, visual injury, 0 to 100 scale, approx. 10 days
[23] = Postemergence, 500 g ai/ha, visual rating after approx. 10 days, 0 to 100 scale (0 no effect, 100 complete control)

O=C(NC1CC1)c1cc(I)n(Cc2cccc(C(F)(F)F)c2)n1 [Compound 180]
Barnyardgrass plant response rating (0 to 100 scale, 0 is no effect, 100 is complete control) (barnyardgrass [1]; 125 g ai/ha): 0
Barnyardgrass plant response rating (barnyardgrass [1]; [18]): 40
Crabgrass, Large plant response rating (0 to 100 scale) (crabgrass, large [2]; 125 g ai/ha): 30
Crabgrass, Large plant response rating (crabgrass, large [2]; [18]): 100
Foxtail, Giant plant response rating (0 to 100 scale) (foxtail, giant [3]; 125 g ai/ha): 10
Foxtail, Giant plant response rating (foxtail, giant [3]; [18]): 90
Morningglory plant response rating (0 to 100 scale) (morningglory [4]; 125 g ai/ha): 0
Morningglory plant response rating (morningglory [4]; [18]): 0
Pigweed plant response rating (0 to 100 scale) (pigweed [5]; 125 g ai/ha): 10
Pigweed plant response rating (pigweed [5]; [18]): 100
Velvetleaf plant response rating (0 to 100 scale) (velvetleaf [6]; 125 g ai/ha): 0
Velvetleaf plant response rating (velvetleaf [6]; [18]): 0
Wheat plant response rating (0 to 100 scale) (wheat [7]; 125 g ai/ha): 0
Wheat plant response rating (wheat [7]; [18]): 0
Corn plant response rating (0 to 100 scale) (corn [8]; 125 g ai/ha): 0
Corn plant response rating (corn [8]; [18]): 0
Barnyardgrass plant response rating (barnyardgrass [9]; [19]): 30
Barnyardgrass plant response rating (barnyardgrass [9]; [20]): 0
Crabgrass, Large plant response rating (crabgrass, large [10]; [19]): 30
Crabgrass, Large plant response rating (crabgrass, large [10]; [20]): 10
Foxtail, Giant plant response rating (foxtail, giant [11]; [19]): 30
Foxtail, Giant plant response rating (foxtail, giant [11]; [20]): 10
Morningglory plant response rating (morningglory [12]; [19]): 80
Morningglory plant response rating (morningglory [12]; [20]): 0
Pigweed plant response rating (pigweed [13]; [19]): 100
Pigweed plant response rating (pigweed [13]; [20]): 70
Velvetleaf plant response rating (velvetleaf [14]; [19]): 30
Velvetleaf plant response rating (velvetleaf [14]; [20]): 0
Wheat plant response rating (wheat [15]; [19]): 0
Wheat plant response rating (wheat [15]; [20]): 0
Corn plant response rating (corn [16]; [19]): 0
Corn plant response rating (corn [16]; [20]): 0
Plant response rating, Rice (rice): 0
Plant response rating, Sedge, Umbrella (sedge, umbrella): 0
Plant response rating, Ducksalad (ducksalad): 0
Plant response rating, Barnyardgrass (barnyardgrass [17]): 0

CCc1cc(C(=O)NCC(F)(F)F)nn1Cc1nc(C(F)(F)F)no1 [Compound 184]
Barnyardgrass plant response rating (0 to 100 scale, 0 is no effect, 100 is complete control) (barnyardgrass [1]; 125 g ai/ha): 0
Barnyardgrass plant response rating (barnyardgrass [1]; [18]): 100
Crabgrass, Large plant response rating (0 to 100 scale) (crabgrass, large [2]; 125 g ai/ha): 50
Crabgrass, Large plant response rating (crabgrass, large [2]; [18]): 100
Foxtail, Giant plant response rating (0 to 100 scale) (foxtail, giant [3]; 125 g ai/ha): 60
Foxtail, Giant plant response rating (foxtail, giant [3]; [18]): 90
Morningglory plant response rating (0 to 100 scale) (morningglory [4]; 125 g ai/ha): 20
Morningglory plant response rating (morningglory [4]; [18]): 100
Pigweed plant response rating (0 to 100 scale) (pigweed [5]; 125 g ai/ha): 60
Pigweed plant response rating (pigweed [5]; [18]): 100
Velvetleaf plant response rating (0 to 100 scale) (velvetleaf [6]; 125 g ai/ha): 0
Velvetleaf plant response rating (velvetleaf [6]; [18]): 50
Wheat plant response rating (0 to 100 scale) (wheat [7]; 125 g ai/ha): 0
Wheat plant response rating (wheat [7]; [18]): 20
Corn plant response rating (0 to 100 scale) (corn [8]; 125 g ai/ha): 0
Corn plant response rating (corn [8]; [18]): 30
Barnyardgrass plant response rating (barnyardgrass [9]; [19]): 60
Barnyardgrass plant response rating (barnyardgrass [9]; [20]): 0
Crabgrass, Large plant response rating (crabgrass, large [10]; [19]): 70
Crabgrass, Large plant response rating (crabgrass, large [10]; [20]): 0
Foxtail, Giant plant response rating (foxtail, giant [11]; [19]): 40
Foxtail, Giant plant response rating (foxtail, giant [11]; [20]): 0
Morningglory plant response rating (morningglory [12]; [21]): 30
Morningglory plant response rating (morningglory [12]; [19]): 90
Pigweed plant response rating (pigweed [13]; [21]): 60
Pigweed plant response rating (pigweed [13]; [19]): 90
Velvetleaf plant response rating (velvetleaf [14]; [21]): 50
Velvetleaf plant response rating (velvetleaf [14]; [19]): 60
Wheat plant response rating (wheat [15]; [21]): 0
Wheat plant response rating (wheat [15]; [19]): 20
Corn plant response rating (corn [16]; [19]): 60
Corn plant response rating (corn [16]; [20]): 0
Plant response rating, Rice (rice): 0
Plant response rating, Sedge, Umbrella (sedge, umbrella): 0
Plant response rating, Ducksalad (ducksalad): 0
Plant response rating, Barnyardgrass (barnyardgrass [17]): 0

CCCNC(=O)c1cc(CC)n(Cc2cccc(C(F)(F)F)n2)n1 [Compound 88]
Barnyardgrass plant response rating (barnyardgrass [1]; [22]): 0
Barnyardgrass plant response rating (barnyardgrass [1]; [18]): 0
Crabgrass, Large plant response rating (crabgrass, large [2]; [22]): 0
Crabgrass, Large plant response rating (crabgrass, large [2]; [18]): 30
Foxtail, Giant plant response rating (foxtail, giant [3]; [22]): 0
Foxtail, Giant plant response rating (foxtail, giant [3]; [18]): 0
Morningglory plant response rating (morningglory [4]; [22]): 0
Morningglory plant response rating (morningglory [4]; [18]): 10
Pigweed plant response rating (pigweed [5]; [22]): 0
Pigweed plant response rating (pigweed [5]; [18]): 0
Velvetleaf plant response rating (velvetleaf [6]; [22]): 0
Velvetleaf plant response rating (velvetleaf [6]; [18]): 0
Wheat plant response rating (wheat [7]; [22]): 0
Wheat plant response rating (wheat [7]; [18]): 0
Corn plant response rating (corn [8]; [22]): 0
Corn plant response rating (corn [8]; [18]): 0
Barnyardgrass plant response rating (barnyardgrass [9]; [21]): 0
Barnyardgrass plant response rating (barnyardgrass [9]; [23]): 0
Crabgrass, Large plant response rating (crabgrass, large [10]; [23]): 10
Crabgrass, Large plant response rating (crabgrass, large [10]; [20]): 0
Foxtail, Giant plant response rating (foxtail, giant [11]; [23]): 0
Foxtail, Giant plant response rating (foxtail, giant [11]; [20]): 0
Morningglory plant response rating (morningglory [12]; [23]): 10
Morningglory plant response rating (morningglory [12]; [20]): 10
Pigweed plant response rating (pigweed [13]; [23]): 10
Pigweed plant response rating (pigweed [13]; [20]): 0
Velvetleaf plant response rating (velvetleaf [14]; [23]): 10
Velvetleaf plant response rating (velvetleaf [14]; [20]): 0
Wheat plant response rating (wheat [15]; [23]): 0
Wheat plant response rating (wheat [15]; [20]): 0
Corn plant response rating (corn [16]; [23]): 10
Corn plant response rating (corn [16]; [20]): 0
Plant response rating, Rice (rice): 0
Plant response rating, Sedge, Umbrella (sedge, umbrella): 0
Plant response rating, Ducksalad (ducksalad): 0
Plant response rating, Barnyardgrass (barnyardgrass [17]): 0
